Each block holds one molecule with its values, some of them ahead of it.
Legend:
[1] = molecular target: mouse DD1α on mouse cells (CD4+ and CD8+ T cells, thymocytes, bone marrow-derived macrophages) (mouse) (UniProt Q9D659); assay: cell-based or functional assay
[2] = system: CD4+ or CD8+ T cells from wt- or DD1α−/− mice; assay: Mouse T cell activation assay (CFSE proliferation); format: cell-based
Protocol: Enriched CD4+ and CD8+ T cells from Wt and DD1α−/− mice were stimulated, with 2.5 μg/ml anti-CD3 alone or together with DD1α-Ig or control Ig. The proliferations of CD4+ T cells (top graphs) or CD8+ T cells (bottom graphs) were determined by the percentage of CFSE-diluted CD8+ cells on day 3. The levels of cytokines (IFN-γ and TNF-α) in culture supernatant on day 2 were analyzed by ELISA. The results represent mean±SD from three experiments.
The inventors have discovered that DD1αregulates T cell activation through DD1α on T cells. […] The proliferations of CD4+ T cells were determined by percentage of CFSE-diluted CD4+ cells on day 3 and IFN-γ and levels in culture supernatants on day 2 were analyzed by ELISA. […] The proliferations of CD8+ T cells were determined by percentage of CD8+ T cells containing diluted CFSE signal on day 3. The cytokine levels in culture supernatant were analyzed by ELISA on day 2.
The amount of Ig protein was kept constant at 10 μg/ml by the addition of control Ig protein. Human CD4+ or CD8+ T cells were purified from freshly isolated PBMCs using CD4+ T Cell Isolation Kit II, human or CD8+ T Cell Isolation Kit, human (Miltenyi Biotec). Mouse CD4+ and CD8+ T cells were purified from splenocytes freshly isolated from mice using CD4+ T Cell Isolation Kit II, mouse or CD8a+ T Cell Isolation Kit II, mouse (Miltenyi Biotec). Purity was confirmed to be over 90% by flow cytometry. The T cells were labeled with 1 μM CFSE, quenched by cold FBS and incubated in the anti-CD3 & Ig proteins-coated plates. On day 2 after stimulation, supernatant was collected and cytokines were assayed by ELISA. On day 3, cells were stained with anti-CD4-APC (OKT4, eBioscience for human CD4+ T cells; RM4-5, eBioscience for mouse CD4+ T cells) or anti-CD8-APC (SK1, eBioscience for human CD8+ T cells; 53-6.7, eBioscience for mouse CD8+ T cells) and then analyzed for CFSE dilution by flow cytometry.

[3] = system: DD1α; assay: Ig fusion protein-pull down assay; format: binding, human
Protocol: (§1) FIGS. 6A-6E show physical association of DD1α with PD1 but not with PD-L1. (FIG. 6A) Interaction of DD1α with PD1 or DD1α. […] The bound Ig fusion proteins were detected with anti-Ig-APC. Empty vector (pcDNA3.1)-transfected cells stained with Ig proteins are shown as a negative control (gray filled) and other staining is shown as black open. (FIG. 6B) DD1α binds to both DD1α and PD1 on CD4+ T cells. Purified CD4+ T cells from Wt and DD1α−/− mice were assayed for binding to Ig fused DD1α or PD1 proteins. Cells were incubated with DD1α-Ig (open), PD1-Ig (open), or control Ig proteins (gray filled) and the bound Ig fusion proteins were detected by anti-Ig-APC. […] The bound Ig fusion proteins were detected by anti-Ig-APC. Binding amounts were determined by percentage of APC positive cells compared to control Ig protein-bound cells. (FIG. 6C) Ig-pulldown experiments show DD1α interaction with both DD1α and PD1. […] The bead bound proteins were eluted and determined by western blot analysis using anti-HA antibody (asterisks). (FIG. 6D) Ig fusion proteins (control Ig, DD1α-Ig, or PD1-Ig) were incubated with lysates from Nutlin-3-treated MCF7 cells and pulled down using protein A/G agarose. The bead bound proteins were eluted and detected by western blot analysis with anti-DD1α or anti-PD1 antibody (asterisk). (FIG. 6E) p53-mediated induction of PD1 and PD-L1. MCF7 cells were treated by Nutlin-3 (10 μM) for 1 to 3 days. MCF7 cells were transfected with control siRNA or p53 siRNA for 24 hours and treated with CPT (500 nM) or DMSO (control) for 1 and 2 days. The levels of indicated proteins were analyzed by western blot analysis. Total RNAs from control siRNA or p53 siRNA transfected MCF7 cells were assessed for mRNA levels of PD1 or PD-L1 by real-time quantitative PCR. PD1 or PD-L1 mRNA levels were normalized to 36B4 expression and shown as mean±SD (n=3). Protein levels of PD1 and PD-L1 were examined in EJ-p53tet cells in the absence or presence of tetracycline (tet), ZR75-1 cells treated with CPT (500 nM), or A375 cells exposed to 13 Gy ionizing irradiation for the indicated times.
Ig fusion proteins (control Ig, DD1α-Ig, or PD1-Ig) were incubated with lysates from Nutlin-3-treated MCF7 cells and pulled down using proten A/G agarose. The bead bound proteins were eluted and detected by western blot analysis with anti-DD1α or anti-PD1 antibody.
Based on the results that both PD-1 and DD1α receptors on T cells contribute to the co-inhibitory roles for DD1α(FIG. 5), it was tested whether DD1α could physically and functionally associate with PD-1 receptor. […] To confirm the specificity of this interaction, the inventors carried out Ig fusion protein-pull down assays using lysates from PD-1, DD1α, or TIM3-transfected 293T cells. […]

[4] = system: wt- or DD1α−/− mouse CD4+ T cells; assay: Ig fusion protein binding to CD4+ T cells from Wt and DD1α−/− mice
Protocol: as §1, with “(FIG. 6D) Ig fusion proteins (control Ig, DD1α-Ig, or PD1-Ig) were incubated with lysates from Nutlin-3-treated MCF7 cells and pulled down using protein A/G agarose.” left out, “(FIG. 6E) p53-mediated induction of PD1 and PD-L1. MCF7 cells were treated by Nutlin-3 (10 μM) for 1 to 3 days. MCF7 cells were transfected with control siRNA or p53 siRNA for 24 hours and treated with CPT (500 nM) or DMSO (control) for 1 and 2 days.” left out, “PD1 or PD-L1 mRNA levels were normalized to 36B4 expression and shown as mean±SD (n=3). Protein levels of PD1 and PD-L1 were examined in EJ-p53tet cells in the absence or presence of tetracycline (tet), ZR75-1 cells treated with CPT (500 nM), or A375 cells exposed to 13 Gy ionizing irradiation for the indicated times.” left out

[5] = system: Jurkat cells expressing DD1α receptor; assay: Ig fusion protein binding to Jurkat cells; details: several concentrations; anti-Ig-APC detection
Protocol: Jurkat cells overexpressing DD1alpha (transfected with DD1alpha cDNA) or control Jurkat cells were assayed for binding to Ig-fused DD1α or PD-1 proteins. Cells were incubated with several different concentrations of DD1α-Ig (left panels) or PD1-Ig (right panels), and the bound Ig fusion proteins were detected by anti-Ig-APC. Binding amounts were determined by percentage of APC positive cells.

[6] = system: MCF7 cells; assay: p53-mediated induction of checkpoint proteins (western blot); format: cell-based, human; details: 10 μM
Protocol: as §1, with “(FIG. 6D) Ig fusion proteins (control Ig, DD1α-Ig, or PD1-Ig) were incubated with lysates from Nutlin-3-treated MCF7 cells and pulled down using protein A/G agarose.” left out, “(FIG. 6E) p53-mediated induction of PD1 and PD-L1. MCF7 cells were treated by Nutlin-3 (10 μM) for 1 to 3 days. MCF7 cells were transfected with control siRNA or p53 siRNA for 24 hours and treated with CPT (500 nM) or DMSO (control) for 1 and 2 days.” left out, “PD1 or PD-L1 mRNA levels were normalized to 36B4 expression and shown as mean±SD (n=3). Protein levels of PD1 and PD-L1 were examined in EJ-p53tet cells in the absence or presence of tetracycline (tet), ZR75-1 cells treated with CPT (500 nM), or A375 cells exposed to 13 Gy ionizing irradiation for the indicated times.” left out

[7] = molecular target: T1, His-DD1α (33-194) (human, UniProt Q9H7M9 33-194); assay: GST pull-down, anti-His immunoblot
T1 construct: not shown: His tag of the pRSET vector (Invitrogen)

[8] = molecular target: T2, DD1α-Ig fusion protein (the extracellular region of DD1α fused with the immunoglobulin G Fc segment) (human, UniProt Q9H7M9 33-194); assay: DD1α-Ig-coated beads on transfected 293T cells
T2 construct: also called DD1α-Fc fusion soluble protein; Fc-tagged soluble DD1α protein; not shown: mouse IgG-Fc region of the pCMV6-AC-FC vector (OriGene)
From the text: Scale bar, 50 μm. […] Scale bar, 100 μm. […] Scale bar, 50 μm.

Chain of mouse DD1α on mouse cells (CD4+ and CD8+ T cells, thymocytes, bone marrow-derived macrophages) (mouse) (Q9D659 33-308): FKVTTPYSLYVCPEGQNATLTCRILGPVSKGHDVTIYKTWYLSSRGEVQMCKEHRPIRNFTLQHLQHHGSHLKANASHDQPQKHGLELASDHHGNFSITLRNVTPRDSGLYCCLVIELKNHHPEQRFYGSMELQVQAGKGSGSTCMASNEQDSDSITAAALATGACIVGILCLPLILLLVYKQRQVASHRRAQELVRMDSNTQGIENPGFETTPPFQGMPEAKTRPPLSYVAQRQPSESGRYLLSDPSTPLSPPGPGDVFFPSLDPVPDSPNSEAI

inhibition of anti-CD3-induced proliferation of mouse CD4+ T cells [1]: 45% | reversal of PD-1-Ig-mediated inhibition in DD1α-/- CD4+ T cells [1]: 30%
Molecule: PD-1-Ig as used on mouse T cells (Fc fusion)

inhibition of anti-CD3-induced proliferation of DD1α-/- mouse CD4+ or CD8+ T cells [1]: 30% | inhibition of anti-CD3-induced proliferation of Wt mouse CD4+ or CD8+ T cells [1]: 50%
Molecule: DD1α-Ig as used on mouse T cells (Fc fusion)

pull down of endogenous DD1α receptor ([3]; lysates of Nutlin-3-treated MCF7 cells): detected
Molecule: PD-1-Ig: Recombinant human or mouse PD-1-Ig fusion protein from R&D Systems [reference compound]
reversal of PD-1-Ig-mediated inhibition of CD4+ T cell stimulation ([2]; DD1α−/− CD4+ T cells): ~30% | inhibition of anti-CD3-induced CD4+ T cell proliferation ([2]; mouse CD4+ T cells, wt): ~45% | pull down of DD1α ([3]; lysates from transfected 293T cells): pulled down | binding to the surface of DD1α−/− CD4+ T cells compared with wt-CD4+ T cells [4]: significantly lower | binding to Jurkat cells expressing DD1α receptor [5]: bind

Molecule: COc1ccc(C2=N[C@@H](c3ccc(Cl)cc3)[C@@H](c3ccc(Cl)cc3)N2C(=O)N2CCNC(=O)C2)c(OC(C)C)c1 [Nutlin-3]
CTLA-4 and ICOSL protein levels [6]: did not respond | PD-1 and PD-L1 protein levels [6]: induced

binding result [7]: no binding
B1: GST-DD1α (215-311), the cytoplasmic region (other)
chain: VYKQRQAASNRRAQELVRMDSNIQGIENPGFEASPPAQGIPEAKVRHPLSYVAQRQPSESGRHLLSEPSTPLSPPGPGDVFFPSLDPVPDSPNFEVI
notes: also called the cytoplasmic region of DD1α (GST fusion); not shown: glutathione S-transferase tag of the pGEX-6P-1 vector

binding result [8]: no binding
B2: DD1α-ΔIgV (immunoglobulin V domain (aa 45-168)-deleted mutant) expressed on transfected cells (receptor)
chain: FKVATPYSLYVCQTGKDAPSNCVVYPSSSQDSENITAAALATGACIVGILCLPLILLLVYKQRQAASNRRAQELVRMDSNIQGIENPGFEASPPAQGIPEAKVRHPLSYVAQRQPSESGRHLLSEPSTPLSPPGPGDVFFPSLDPVPDSPNFEVI
notes: signal peptide 1-32 left out; also called mutant lacking the IgV domain; IgV-deleted DD1α

binding result [7]: no binding
B3: GST-DD1α-ΔIgV (33-311, ΔIgV) (other)
chain: B2 chain
notes: also called IgV-deleted mutant; IgV-deleted DD1α (GST fusion); not shown: N-terminal GST tag and linker of pGEX-6P-1

Reference: patent publication US20170184604A1, “DD1ALPHA RECEPTOR AND USES THEREOF IN IMMUNE DISORDERS” (THE GENERAL HOSPITAL CORPORATION, priority 2014, published 2017)
